Measured values from patent publication US10363239B2, “Method for inhibiting growth of cancer cells” (Pain Therapeutics, Inc., priority 2013, dated 2019).
Where two headings read alike, the source gives them in different places.

What was measured:
[1] = test system: mu opiate receptor (MOR); assay: MOR agonist activity using [35S]GTPγS binding assay in striatal membranes; format: biochemical; details: for MOR agonist activity ([35S]GTPγS binding), FLNA-Binding Compound as Agonist 1 μM + BFNA: 1 μM compound + 1 μM β-funaltrexamine
How it was run: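 Striatal membranes (200 μg) were preincubated 5 min at 30 °C in HEPES pH 7.5 with 100 mM NaCl, 1 mM MgCl2 and 0.5 nM [35S]GTPγS, then 5 min more with 0.1–10 μM compound. Gαo was immunoprecipitated and bound radioactivity counted by scintillation.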

[2] = molecular target: FLNA pentapeptide of SEQ ID NO: 1 (Bn-VAKGL) (Homo sapiens, UniProt P21333); assay: FITC-NLX-based FLNA screening assay (inhibition of FITC-naloxone binding to Bn-VAKGL on streptavidin plates); details: 10 nM FITC-NLX
[3] = read-out: Percent Binding Inhibition, FLNA-binding compound 0.01 μM
[4] = read-out: Percent Binding Inhibition, FLNA-binding compound 0.1 μM
[5] = read-out: Percent Binding Inhibition, FLNA-binding compound 1 μM
[6] = Series C-1, 0.1 μM compound, relative to DAMGO
[7] = Series C-1, 0.1 μM compound, [35S]GTPγS binding to Gαo, striatal membranes
[8] = Series C-1, 1 μM compound + 1 μM β-FNA
[9] = Series C-1, 1 μM compound + β-FNA, relative to DAMGO + BFNA
[10] = Series C-1, 1 μM compound, relative to DAMGO
[11] = Series C-1, 1 μM compound, [35S]GTPγS binding to Gαo, striatal membranes
[12] = FLNA-binding compound 0.01 μM, read-out: Percent Binding Inhibition
[13] = FLNA-binding compound 0.1 μM, read-out: Percent Binding Inhibition
[14] = FLNA-binding compound 1 μM, read-out: Percent Binding Inhibition
[15] = 0.1 μM compound relative to DAMGO
[16] = 1 μM compound + BFNA relative to DAMGO + BFNA
[17] = 1 μM compound relative to DAMGO
[18] = Series C-2, 0.1 μM compound, relative to DAMGO
[19] = Series C-2, 0.1 μM compound, [35S]GTPγS binding to Gαo, striatal membranes
[20] = Series C-2, 1 μM compound + 1 μM β-FNA
[21] = Series C-2, 1 μM compound + β-FNA, relative to DAMGO + BFNA
[22] = Series C-2, 1 μM compound, relative to DAMGO
[23] = Series C-2, 1 μM compound, [35S]GTPγS binding to Gαo, striatal membranes

Structure (SMILES) | inhibition at 0.01 µM [2, 3] | inhibition at 0.1 µM [2, 4] | inhibition at 1 µM [2, 5] | % DAMGO (0.1 μM) [1, 6] | Concentration of FLNA-Binding Compound as Agonist 0.1 μM [1, 7] | Concentration of FLNA-Binding Compound as Agonist 1 μM + BFNA [1, 8] | % DAMGO + BFNA [1, 9] | % DAMGO (1 μM) [1, 10] | Concentration of FLNA-Binding Compound as Agonist 1 μM [1, 11] | inhibition at 0.01 µM [2, 12] | inhibition at 0.1 µM [2, 13] | inhibition at 1 µM [2, 14] | also measured
COc1ccccc1CCC(=O)CC1c2c(cc3c(c2OC)OCO3)CC[N+]1(C)C (stereo not drawn) [Compound B0045] | 63.2% | 68.2% | 73.9% |  |  |  |  |  |  |  |  |  | % DAMGO (0.1 μM) ([1]; Series B, 0.1 μM compound, relative to DAMGO): 82.6%; MOR agonist activity, percent [35S]GTPγS binding at the stated compound concentration ([1]; Series B, 0.1 μM compound, [35S]GTPγS binding to Gαo, striatal membranes): 129.3%; MOR agonist activity, percent [35S]GTPγS binding at the stated compound concentration ([1]; Series B, 1 μM compound + 1 μM β-FNA): 83.8%; % DAMGO + BFNA ([1]; Series B, 1 μM compound + β-FNA, relative to DAMGO + BFNA): 257.1%; % DAMGO (1 μM) ([1]; Series B, 1 μM compound, relative to DAMGO): 83.4%; MOR agonist activity, percent [35S]GTPγS binding at the stated compound concentration ([1]; Series B, 1 μM compound, [35S]GTPγS binding to Gαo, striatal membranes): 193.1%
COc1ccc(C(=O)N2CCOC23CCN(S(=O)(=O)c2ccc(OC)cc2)CC3)cc1 [Compound C0019] | 30.1% | 38.2% | 43.6% | 59.1% | 104.4% | 52.8% | 80.4% | 68.1% | 176.6% |  |  |  | 
CC(=O)c1ccc(S(=O)(=O)N2CCC3(CC2)OCC(CCCCN(C)C)N3S(=O)(=O)c2ccc(C(C)=O)cc2)cc1 (stereo not drawn) [Compound C0080] |  |  |  | 112.1% | 187.9% | 167.1% | 351.8% | 92.4% | 205.4% | 46.8% | 53.3% | 54.6% | 
OC(COc1cccc(F)c1)CN1CCc2ccccc2C1 (stereo not drawn) [Compound A0055] |  |  |  |  |  |  |  |  |  | 28.1% | 32.4% | 41.8% | MOR agonist activity ([35S]GTPγS binding), FLNA-Binding Compound as Agonist 0.1 μM ([1]; 0.1 μM compound): 89.8%; % DAMGO (0.1 μM) [1, 15]: 53.2%; MOR agonist activity ([35S]GTPγS binding), FLNA-Binding Compound as Agonist 1 μM ([1]; 1 μM compound): 195.2%; MOR agonist activity ([35S]GTPγS binding), FLNA-Binding Compound as Agonist 1 μM + BFNA [1]: 33.5%; % DAMGO + BFNA [1, 16]: 102.4%; % DAMGO (1 μM) [1, 17]: 78.4%
CCCCc1ccc(S(=O)(=O)N2CCC3(CC2)OCCN3S(=O)(=O)c2ccc(CCCC)cc2)cc1 [Compound C0030] |  |  |  | 96.0% | 150.3% | 95.0% | 291.4% | 98.0% | 226.8% | 37.4% | 45.4% | 56% | 
CC(=O)c1ccc(S(=O)(=O)N2CCOC23CCN(CC2CC2)CC3)cc1 [Compound C0095M] |  |  |  |  |  |  |  |  |  | 40.1% | 46.6% | 50.5% | % DAMGO (0.1 μM) [1, 18]: 107.4%; MOR agonist activity, percent [35S]GTPγS binding at the stated compound concentration [1, 19]: 189.1%; MOR agonist activity, percent [35S]GTPγS binding at the stated compound concentration [1, 20]: 107.7%; % DAMGO + BFNA [1, 21]: 489.5%; % DAMGO (1 μM) [1, 22]: 88.8%; MOR agonist activity, percent [35S]GTPγS binding at the stated compound concentration [1, 23]: 224.6%
O=S(=O)(c1cccc2cccnc12)N1CCC2(CC1)OCCN2S(=O)(=O)c1cccc2cccnc12 [Compound C0143M] | 45.3% | 48.4% | 57.8% | 47.1% | 81.0% | 86.5% | 94.7% | 59.3% | 193.3% |  |  |  | % DAMGO (0.1 μM) [1, 18]: 47.1%; Concentration of FLNA-Binding Compound as Agonist 0.1 μM [1, 19]: 81.0%; Concentration of FLNA-Binding Compound as Agonist 1 μM + BFNA [1, 20]: 86.5%; % DAMGO + BFNA [1, 21]: 94.7%; % DAMGO (1 μM) [1, 22]: 59.3%; Concentration of FLNA-Binding Compound as Agonist 1 μM [1, 23]: 193.3%
CC1CCC(C(C)C)C(OCC(O)Cn2ccc3ccccc32)C1 (stereo not drawn) [Compound A0078] | 50.1% | 55.8% | 57.6% |  |  |  |  |  |  |  |  |  | MOR agonist activity ([35S]GTPγS binding), FLNA-Binding Compound as Agonist 0.1 μM ([1]; 0.1 μM compound): 250.5%; % DAMGO (0.1 μM) [1, 15]: 124.9%; MOR agonist activity ([35S]GTPγS binding), FLNA-Binding Compound as Agonist 1 μM ([1]; 1 μM compound): 289.9%; MOR agonist activity ([35S]GTPγS binding), FLNA-Binding Compound as Agonist 1 μM + BFNA [1]: 147.8%; % DAMGO + BFNA [1, 16]: 274.2%; % DAMGO (1 μM) [1, 17]: 92.3%
COc1cc(S(=O)(=O)N2CCC3(CC2)OCCN3S(=O)(=O)c2cc(OC)c(OC)c(OC)c2)cc(OC)c1OC [Compound C0062] |  |  |  | 81.9% | 127.8% | 59.8% | 149.9% | 134.7% | 310.5% | 39.5% | 49.5% | 48% | 
